The values below come from ChEMBL document CHEMBL1201862, “PubChem BioAssay data set” (2004).

In general, AC50 refers to the concentration at which the activity in the assay is half-maximal. A word on the EC50: it is the concentration needed to bring the measured effect to its halfway point.

A short description of assay [1]: Luminescent dose response cell-based high throughput screening assay for inhibitors of the Janus kinase 2 mutant JAK2V617F. [Related pubchem assays: 1446 (Primary screen.), 1521 (Confirmation assay.), 1486 (Counter screen.)]. It counts as functional.
Assay [2] concerns the target T1, Replicative DNA helicase DnaB (Mycobacterium tuberculosis, UniProt P9WMR3).
T1 sequence (P9WMR3 whole entry): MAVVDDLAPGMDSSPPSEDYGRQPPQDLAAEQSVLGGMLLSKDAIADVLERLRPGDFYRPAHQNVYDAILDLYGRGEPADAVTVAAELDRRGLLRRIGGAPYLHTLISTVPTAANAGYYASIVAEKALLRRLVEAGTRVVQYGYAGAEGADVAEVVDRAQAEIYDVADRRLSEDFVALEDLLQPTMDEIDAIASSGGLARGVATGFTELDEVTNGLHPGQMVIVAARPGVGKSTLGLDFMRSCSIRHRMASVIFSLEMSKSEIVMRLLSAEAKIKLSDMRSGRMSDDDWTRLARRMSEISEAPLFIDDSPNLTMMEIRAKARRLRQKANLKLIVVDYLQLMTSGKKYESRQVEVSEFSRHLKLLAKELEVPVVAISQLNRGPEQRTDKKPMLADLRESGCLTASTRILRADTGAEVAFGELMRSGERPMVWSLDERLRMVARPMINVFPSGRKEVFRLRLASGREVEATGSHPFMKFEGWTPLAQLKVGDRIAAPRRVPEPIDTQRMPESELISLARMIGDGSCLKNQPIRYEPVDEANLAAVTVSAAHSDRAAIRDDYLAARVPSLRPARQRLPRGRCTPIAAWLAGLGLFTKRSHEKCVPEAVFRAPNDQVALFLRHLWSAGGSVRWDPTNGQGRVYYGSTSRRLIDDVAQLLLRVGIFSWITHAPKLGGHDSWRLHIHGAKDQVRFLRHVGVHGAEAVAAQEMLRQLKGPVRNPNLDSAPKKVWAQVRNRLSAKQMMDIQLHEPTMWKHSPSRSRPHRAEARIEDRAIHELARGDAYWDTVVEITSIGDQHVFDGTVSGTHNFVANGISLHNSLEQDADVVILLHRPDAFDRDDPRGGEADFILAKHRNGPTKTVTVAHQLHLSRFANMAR
Briefly: DnaB intein splicing inhibitors, dose response, biochemical, cell-free fluorescence (AID 449749). Format: functional.

In assay [3] the target is T2, Protein RecA (Mycobacterium tuberculosis, UniProt P9WHJ3).
T2 sequence (P9WHJ3 whole entry): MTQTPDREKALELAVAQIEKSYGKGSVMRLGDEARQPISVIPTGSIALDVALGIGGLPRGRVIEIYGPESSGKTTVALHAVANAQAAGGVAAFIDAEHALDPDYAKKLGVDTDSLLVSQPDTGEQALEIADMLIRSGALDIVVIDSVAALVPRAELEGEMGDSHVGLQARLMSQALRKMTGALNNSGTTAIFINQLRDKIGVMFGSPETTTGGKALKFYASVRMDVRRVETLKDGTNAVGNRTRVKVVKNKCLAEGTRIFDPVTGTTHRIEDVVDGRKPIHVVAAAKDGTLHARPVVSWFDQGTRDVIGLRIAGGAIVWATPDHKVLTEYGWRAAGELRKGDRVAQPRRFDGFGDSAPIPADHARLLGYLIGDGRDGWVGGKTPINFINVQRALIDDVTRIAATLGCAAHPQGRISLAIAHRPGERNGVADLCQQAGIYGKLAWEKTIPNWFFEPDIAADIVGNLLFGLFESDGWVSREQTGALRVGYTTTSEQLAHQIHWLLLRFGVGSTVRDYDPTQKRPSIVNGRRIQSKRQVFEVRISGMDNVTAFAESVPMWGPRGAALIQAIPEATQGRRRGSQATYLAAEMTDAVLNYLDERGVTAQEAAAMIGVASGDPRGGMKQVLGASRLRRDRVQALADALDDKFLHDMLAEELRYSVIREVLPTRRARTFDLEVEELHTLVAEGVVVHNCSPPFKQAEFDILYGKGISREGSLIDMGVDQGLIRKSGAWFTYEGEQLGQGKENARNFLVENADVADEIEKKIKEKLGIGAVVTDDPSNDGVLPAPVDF
In words: Fluorescence Cell-Free Homogeneous Dose Retest to Identify Inhibitors of RecA-Intein Splicing Activity. [Related pubchem assays (depositor defined):AID2097, AID2223, AID489010, AID492950]. It counts as functional.

For assay [4], the target named is Paired box protein Pax-8 (Homo sapiens, UniProt Q06710). In words: inhibitors of PAX8-driven TPO luciferase reporter, dose response, RMG-I cells, cherry-pick (AID 687027).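 Note: luciferase reporter driven by Pax8 target thyroperoxidase promoter measured by SteadyGlo luminescence.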 Format: functional, cell-based.
Assay [5] in a line: non-specific cell cytotoxicity, dose response, cytotoxicity control for PAX8 inhibitor project, plate reader, dry powder samples (AID 743021). It counts as functional, cell-based.
Assay [6] concerns BJ. Briefly: cytotoxicity toward BJ-TERT fibroblasts, dose response, cell-based, RAS-independent, luminescence (AID 1933). Format: functional. Conditions: Homo sapiens.
Assay [7] addresses T3, Heat shock factor protein 1 (Mus musculus, UniProt P38532).
T3 sequence (P38532 whole entry): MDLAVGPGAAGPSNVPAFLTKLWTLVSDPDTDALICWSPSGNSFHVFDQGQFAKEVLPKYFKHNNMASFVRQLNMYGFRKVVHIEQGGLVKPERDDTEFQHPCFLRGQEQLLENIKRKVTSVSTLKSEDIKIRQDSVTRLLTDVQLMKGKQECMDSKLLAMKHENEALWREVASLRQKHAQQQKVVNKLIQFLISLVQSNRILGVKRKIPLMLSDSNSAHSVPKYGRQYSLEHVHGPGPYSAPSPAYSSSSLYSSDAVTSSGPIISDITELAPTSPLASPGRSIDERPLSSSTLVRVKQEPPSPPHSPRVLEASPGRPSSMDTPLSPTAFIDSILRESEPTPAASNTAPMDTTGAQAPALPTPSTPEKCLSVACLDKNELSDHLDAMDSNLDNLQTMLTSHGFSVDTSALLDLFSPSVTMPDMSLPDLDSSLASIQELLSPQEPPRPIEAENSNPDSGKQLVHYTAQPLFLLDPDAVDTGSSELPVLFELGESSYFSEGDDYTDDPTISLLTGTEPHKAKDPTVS
In words: inhibition of MG132-induced HSE-luciferase signal, confirmation, cell-based, NIH3T3, luminescence, dose retest (AID 2382).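 Note: NIH3T3 fibroblasts with HSF1-driven luciferase reporter stressed by proteasome inhibitor MG132; luminescence from HSF1-driven luciferase expression after 8 hours of MG132 stress.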 Format: functional.

Assay [8] relates to BJ. In words: cells. It counts as functional, cell-based. Conditions: Homo sapiens.
Assay [9] can be described thus: inhibitors of intracellular T. cruzi replication, confirmation, NIH3T3 host cells, beta-gal luminescence (AID 2044).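 Note: intracellular parasites grown in NIH/3T3 mouse fibroblasts as host cells; luminescent beta-galactosidase reporter signal from transgenic T. cruzi replicating inside host cells; inhibitors lower the luminescence signal.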 Format: functional, cell-based.
A short description of assay [10]: cytotoxicity toward NIH3T3 fibroblasts, dose response, counter-screen, cell-based, ATP luminescence, mouse fibroblasts (AID 2010).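 Note: cells exposed to compound for about 90 hours before reading.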 It counts as functional.
The test system of assay [11] is BJ. In words: cytotoxicity toward BJ-TERT-LT-ST fibroblasts, dose response, cell-based, RAS-independent, luminescence (AID 1935).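 Note: BJ fibroblasts immortalized with TERT plus LT and ST oncogenes.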 Format: functional. Conditions: Homo sapiens.
Assay [12] is described as follows: cytotoxicity toward DRD oncogenic fibroblasts, dose response, cell-based, non-viral oncogenic, luminescence (AID 1934). It counts as functional. To be noted: Homo sapiens.
A short description of assay [13]: Late stage counterscreen results from the probe development effort to identify activators of signal transducer and activator of transcription 1 (STAT1): luminescence-based cell-based dose response assay to identify cytotoxic compounds. Format: functional. (In general: A counterscreen serves to expose hits that act by an unwanted route or on another target.)
The target of assay [14] is T4, Fatty acid synthase (Homo sapiens, UniProt P49327). In words: FAS thioesterase domain inhibitors, dose response, biochemical, endpoint fluorescence intensity, uHTS hits (AID 624327).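 Note: fluorescence from hydrolysis of an O-methyl fluorescein acyl ester substrate by the enzyme.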 It counts as functional.
Assay [15] deals with T4, Fatty acid synthase. In words: FAS thioesterase domain inhibitors, dose response, biochemical, kinetic fluorescence intensity (AID 624326).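 Note: rate of fluorescence rise from hydrolysis of a fluorogenic O-methyl fluorescein ester substrate.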 It counts as functional.
In assay [16] the target is T5, Estrogen receptor (Homo sapiens, UniProt P03372).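 Note: potency for inhibiting coactivator peptide recruitment to the receptor.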
T5 sequence (P03372 whole entry): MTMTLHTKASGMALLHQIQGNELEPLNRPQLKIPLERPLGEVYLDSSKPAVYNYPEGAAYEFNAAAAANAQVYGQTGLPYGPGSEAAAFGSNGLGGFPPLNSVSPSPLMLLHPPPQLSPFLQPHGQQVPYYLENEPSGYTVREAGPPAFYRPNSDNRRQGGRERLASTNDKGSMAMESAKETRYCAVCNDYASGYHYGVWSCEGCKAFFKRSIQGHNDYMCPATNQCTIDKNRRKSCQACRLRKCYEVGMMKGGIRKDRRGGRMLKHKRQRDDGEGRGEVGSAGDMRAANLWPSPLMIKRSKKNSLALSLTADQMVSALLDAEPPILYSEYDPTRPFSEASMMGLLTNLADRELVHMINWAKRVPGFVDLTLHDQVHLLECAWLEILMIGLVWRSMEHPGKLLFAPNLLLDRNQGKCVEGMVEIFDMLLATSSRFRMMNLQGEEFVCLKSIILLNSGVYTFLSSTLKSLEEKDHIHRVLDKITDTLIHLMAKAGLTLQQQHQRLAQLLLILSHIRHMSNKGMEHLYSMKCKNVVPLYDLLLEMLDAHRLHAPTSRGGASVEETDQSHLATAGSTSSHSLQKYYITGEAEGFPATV

The target of assay [17] is Peroxisome proliferator-activated receptor gamma/Nuclear receptor coactivator 1 (Homo sapiens, UniProt P37231). In words: TR-FRET dose response biochemical High Throughput Screening assay for agonists of the steroid receptor coactivator 1 (SRC-1) recruitment by the peroxisome proliferator-activated receptor gamma (PPAR gamma): non-selective agonists. [Related pubchem assays (depositor defined):AID1300, AID1808, AID504735, AID631]. Format: protein assay. Background: Time-resolved FRET reads energy transfer from a long-lived donor to a nearby acceptor.

For assay [18], the target named is Peroxisome proliferator-activated receptor gamma/Nuclear receptor coactivator 3 (Homo sapiens, UniProt P37231). Briefly: TR-FRET dose response biochemical High Throughput Screening assay for agonists of the steroid receptor coactivator 3 (SRC-3) recruitment by the peroxisome proliferator-activated receptor gamma (PPAR gamma): non-selective agonists. [Related pubchem assays: 1301 (Confirmation screen.), 1048 (Primary screen.)]. It counts as functional.

In assay [19] the target is Peroxisome proliferator-activated receptor gamma/Nuclear receptor coactivator 2 (Homo sapiens, UniProt P37231). In words: TR-FRET dose response biochemical High Throughput Screening assay for agonists of the steroid receptor coactivator 2 (SRC-2) recruitment by the peroxisome proliferator-activated receptor gamma (PPAR gamma): non-selective agonists. [Related pubchem assays: 1297, 1032 ]. Format: functional.

For assay [20], the target named is Ephrin type-A receptor 4 (Mus musculus, UniProt Q03137). Briefly: inhibitors of EphA4 binding to KYL peptide, primary screen, biochemical, colorimetric, mouse EphA4 (AID 689). Format: functional.
In assay [21] the target is T6, Polyadenylate-binding protein 1 (Homo sapiens, UniProt P11940). Briefly: PABP1 MLLE–PAM2 interaction inhibitors, dose response, miRNA deadenylation inhibitor project, biochemical, fluorescence polarization, Cy5-PAM2 peptide, secondary (AID 602260). It counts as functional. Conditions: read-out: IC50_Mean.
The target in assay [22] is T6, Polyadenylate-binding protein 1. In words: PABP1 MLLE–PAM2 binding inhibitor potency, dose response, biochemical, fluorescence polarization, FITC-PAM2 peptide (AID 602259). Conditions: read-out: IC50_Mean. Format: functional. On the technique in general: Fluorescence polarisation rises when a labelled molecule tumbles more slowly, as on binding a larger partner.
Assay [23] deals with T7, Protein skinhead-1 (Caenorhabditis elegans, UniProt P34707).
T7 sequence (P34707 whole entry): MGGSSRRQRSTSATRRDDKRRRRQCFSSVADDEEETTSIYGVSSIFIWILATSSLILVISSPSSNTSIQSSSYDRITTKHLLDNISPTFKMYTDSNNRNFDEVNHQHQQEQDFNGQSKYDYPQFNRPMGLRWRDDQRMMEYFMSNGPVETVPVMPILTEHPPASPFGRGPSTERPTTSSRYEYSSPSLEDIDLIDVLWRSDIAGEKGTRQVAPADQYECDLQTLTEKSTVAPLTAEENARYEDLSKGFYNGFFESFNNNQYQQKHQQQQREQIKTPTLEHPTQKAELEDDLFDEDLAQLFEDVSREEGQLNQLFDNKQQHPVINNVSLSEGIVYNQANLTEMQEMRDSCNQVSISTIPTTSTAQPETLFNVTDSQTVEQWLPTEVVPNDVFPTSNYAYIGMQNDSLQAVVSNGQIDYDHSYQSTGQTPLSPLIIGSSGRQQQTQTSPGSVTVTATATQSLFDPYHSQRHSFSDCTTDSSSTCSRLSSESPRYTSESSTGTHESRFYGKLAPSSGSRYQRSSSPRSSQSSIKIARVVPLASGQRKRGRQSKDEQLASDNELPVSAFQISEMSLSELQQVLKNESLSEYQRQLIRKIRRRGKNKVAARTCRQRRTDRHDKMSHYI
It counts as functional.

Active and inactive are the calls of the source.

T6 sequence (P11940 whole entry): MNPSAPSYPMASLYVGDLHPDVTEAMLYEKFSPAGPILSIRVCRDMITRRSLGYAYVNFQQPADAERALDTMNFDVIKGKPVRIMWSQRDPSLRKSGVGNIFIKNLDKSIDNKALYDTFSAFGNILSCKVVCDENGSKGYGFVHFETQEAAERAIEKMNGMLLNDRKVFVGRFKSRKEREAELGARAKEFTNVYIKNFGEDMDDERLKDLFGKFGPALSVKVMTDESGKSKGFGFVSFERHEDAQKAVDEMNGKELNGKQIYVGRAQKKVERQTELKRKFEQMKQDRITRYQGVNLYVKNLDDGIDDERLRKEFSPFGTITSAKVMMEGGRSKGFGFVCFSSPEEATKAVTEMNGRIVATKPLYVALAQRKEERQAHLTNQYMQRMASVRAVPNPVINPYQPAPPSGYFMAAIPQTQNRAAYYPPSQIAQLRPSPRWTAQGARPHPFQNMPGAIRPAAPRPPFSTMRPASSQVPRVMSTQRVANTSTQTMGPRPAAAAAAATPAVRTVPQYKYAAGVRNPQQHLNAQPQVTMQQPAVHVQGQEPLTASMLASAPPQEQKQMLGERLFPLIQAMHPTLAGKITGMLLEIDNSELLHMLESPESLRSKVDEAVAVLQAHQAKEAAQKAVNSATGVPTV
Sequence of Paired box protein Pax-8 (Q06710 whole entry): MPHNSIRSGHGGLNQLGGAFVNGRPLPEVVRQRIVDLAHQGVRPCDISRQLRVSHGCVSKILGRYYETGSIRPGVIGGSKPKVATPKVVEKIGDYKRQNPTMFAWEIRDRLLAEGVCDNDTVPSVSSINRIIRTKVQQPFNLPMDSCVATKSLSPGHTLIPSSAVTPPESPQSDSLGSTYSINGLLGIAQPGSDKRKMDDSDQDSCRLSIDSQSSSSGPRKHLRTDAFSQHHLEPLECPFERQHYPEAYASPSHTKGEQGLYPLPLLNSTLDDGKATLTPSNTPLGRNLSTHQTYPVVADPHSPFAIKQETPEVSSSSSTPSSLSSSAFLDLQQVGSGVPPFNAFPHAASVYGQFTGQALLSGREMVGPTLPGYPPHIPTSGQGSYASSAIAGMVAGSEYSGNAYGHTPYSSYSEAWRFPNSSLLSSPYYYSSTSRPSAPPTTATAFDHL
T4 sequence (P49327 whole entry, the tested form may be a part): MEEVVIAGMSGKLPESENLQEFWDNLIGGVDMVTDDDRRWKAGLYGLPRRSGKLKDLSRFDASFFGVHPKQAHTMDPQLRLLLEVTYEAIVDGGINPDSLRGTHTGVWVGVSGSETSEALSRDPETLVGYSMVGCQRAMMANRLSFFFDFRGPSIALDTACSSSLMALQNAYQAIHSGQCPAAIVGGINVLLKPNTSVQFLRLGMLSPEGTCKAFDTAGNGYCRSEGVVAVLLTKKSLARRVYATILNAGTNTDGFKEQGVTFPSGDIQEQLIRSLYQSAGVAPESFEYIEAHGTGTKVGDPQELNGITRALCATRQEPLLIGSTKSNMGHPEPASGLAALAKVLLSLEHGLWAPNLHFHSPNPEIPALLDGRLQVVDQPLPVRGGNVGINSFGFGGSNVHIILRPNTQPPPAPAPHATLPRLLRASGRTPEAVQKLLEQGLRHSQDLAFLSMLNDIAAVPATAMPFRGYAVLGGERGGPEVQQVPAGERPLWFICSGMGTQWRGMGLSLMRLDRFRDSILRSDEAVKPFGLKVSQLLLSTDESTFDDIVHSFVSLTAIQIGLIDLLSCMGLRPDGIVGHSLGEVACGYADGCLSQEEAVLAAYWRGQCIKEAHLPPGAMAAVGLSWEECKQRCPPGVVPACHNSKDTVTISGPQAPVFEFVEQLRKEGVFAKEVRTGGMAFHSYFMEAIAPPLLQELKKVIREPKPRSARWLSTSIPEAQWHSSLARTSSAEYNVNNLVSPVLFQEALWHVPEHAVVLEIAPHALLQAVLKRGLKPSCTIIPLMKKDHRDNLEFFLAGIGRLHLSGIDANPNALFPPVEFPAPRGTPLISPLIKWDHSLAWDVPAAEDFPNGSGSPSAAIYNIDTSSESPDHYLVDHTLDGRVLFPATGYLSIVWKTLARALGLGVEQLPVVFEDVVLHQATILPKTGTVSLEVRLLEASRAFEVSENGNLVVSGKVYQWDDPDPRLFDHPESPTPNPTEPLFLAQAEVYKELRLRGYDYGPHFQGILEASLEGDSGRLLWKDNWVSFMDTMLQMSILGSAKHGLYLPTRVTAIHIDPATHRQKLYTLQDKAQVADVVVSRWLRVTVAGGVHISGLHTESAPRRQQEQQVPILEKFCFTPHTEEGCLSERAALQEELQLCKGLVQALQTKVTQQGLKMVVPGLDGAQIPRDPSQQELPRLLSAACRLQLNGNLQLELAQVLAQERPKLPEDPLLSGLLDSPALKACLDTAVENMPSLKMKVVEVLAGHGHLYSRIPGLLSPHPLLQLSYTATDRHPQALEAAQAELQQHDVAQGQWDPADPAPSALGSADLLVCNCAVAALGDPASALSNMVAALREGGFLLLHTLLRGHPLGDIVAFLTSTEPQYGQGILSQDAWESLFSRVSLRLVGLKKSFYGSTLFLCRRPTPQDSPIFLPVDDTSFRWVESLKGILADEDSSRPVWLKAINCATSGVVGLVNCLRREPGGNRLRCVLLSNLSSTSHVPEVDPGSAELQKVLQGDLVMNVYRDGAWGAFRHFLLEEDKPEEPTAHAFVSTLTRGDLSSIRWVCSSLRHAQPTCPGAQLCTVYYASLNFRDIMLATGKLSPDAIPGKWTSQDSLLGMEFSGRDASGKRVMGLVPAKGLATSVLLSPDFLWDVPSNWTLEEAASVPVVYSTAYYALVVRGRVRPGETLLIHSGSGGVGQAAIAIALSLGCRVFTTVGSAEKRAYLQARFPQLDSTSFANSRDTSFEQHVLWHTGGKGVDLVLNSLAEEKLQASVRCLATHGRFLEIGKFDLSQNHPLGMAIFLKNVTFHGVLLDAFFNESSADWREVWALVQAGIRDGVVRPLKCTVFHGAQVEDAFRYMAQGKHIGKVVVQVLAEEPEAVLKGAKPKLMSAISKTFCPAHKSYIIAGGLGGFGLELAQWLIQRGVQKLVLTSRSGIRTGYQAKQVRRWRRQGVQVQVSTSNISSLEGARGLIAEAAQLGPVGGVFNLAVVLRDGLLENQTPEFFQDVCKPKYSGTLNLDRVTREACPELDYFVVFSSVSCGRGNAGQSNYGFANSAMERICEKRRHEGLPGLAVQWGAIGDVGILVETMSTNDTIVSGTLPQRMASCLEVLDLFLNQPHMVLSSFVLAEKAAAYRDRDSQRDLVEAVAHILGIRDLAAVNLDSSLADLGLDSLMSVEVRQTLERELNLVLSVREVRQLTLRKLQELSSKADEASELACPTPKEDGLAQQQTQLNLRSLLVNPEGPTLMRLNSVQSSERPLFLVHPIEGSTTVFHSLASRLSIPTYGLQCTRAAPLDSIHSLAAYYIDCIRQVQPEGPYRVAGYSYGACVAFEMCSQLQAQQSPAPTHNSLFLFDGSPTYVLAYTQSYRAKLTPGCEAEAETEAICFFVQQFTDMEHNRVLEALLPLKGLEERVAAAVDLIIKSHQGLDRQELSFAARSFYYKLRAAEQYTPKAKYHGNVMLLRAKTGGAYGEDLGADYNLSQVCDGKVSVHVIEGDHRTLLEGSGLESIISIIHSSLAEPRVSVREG
Sequence of Ephrin type-A receptor 4 (Q03137 whole entry): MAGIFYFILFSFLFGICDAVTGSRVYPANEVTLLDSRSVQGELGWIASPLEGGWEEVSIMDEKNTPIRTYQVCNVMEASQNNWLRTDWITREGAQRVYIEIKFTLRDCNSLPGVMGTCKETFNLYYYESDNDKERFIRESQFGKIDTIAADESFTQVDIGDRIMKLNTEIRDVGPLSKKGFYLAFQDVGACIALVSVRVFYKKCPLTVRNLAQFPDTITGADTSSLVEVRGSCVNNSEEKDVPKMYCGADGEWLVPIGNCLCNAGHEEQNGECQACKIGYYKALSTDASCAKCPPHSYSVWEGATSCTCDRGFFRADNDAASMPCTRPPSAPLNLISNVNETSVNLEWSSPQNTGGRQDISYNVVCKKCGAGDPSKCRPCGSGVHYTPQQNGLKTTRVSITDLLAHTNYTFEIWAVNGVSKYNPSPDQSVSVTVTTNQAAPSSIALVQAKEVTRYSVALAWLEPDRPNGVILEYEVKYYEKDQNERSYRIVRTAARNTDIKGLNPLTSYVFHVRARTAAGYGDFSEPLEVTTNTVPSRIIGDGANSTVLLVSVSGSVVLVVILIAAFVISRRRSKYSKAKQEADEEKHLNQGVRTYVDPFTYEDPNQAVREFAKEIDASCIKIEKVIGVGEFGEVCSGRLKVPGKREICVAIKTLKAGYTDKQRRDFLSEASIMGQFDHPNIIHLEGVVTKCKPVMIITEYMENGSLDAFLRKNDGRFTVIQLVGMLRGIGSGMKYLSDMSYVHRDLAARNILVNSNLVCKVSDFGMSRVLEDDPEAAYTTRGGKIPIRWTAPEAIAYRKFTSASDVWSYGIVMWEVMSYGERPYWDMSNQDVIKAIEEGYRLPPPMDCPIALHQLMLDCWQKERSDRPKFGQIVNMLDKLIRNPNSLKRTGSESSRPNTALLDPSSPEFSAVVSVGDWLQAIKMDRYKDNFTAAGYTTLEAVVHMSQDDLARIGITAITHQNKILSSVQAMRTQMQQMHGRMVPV

In the case of `CCCCCCN(C(=O)CCl)c1ccccc1`, the IC50 in [1] is 1.19 µM (active). In addition, the values for the AC50 in assay [2], in assay [4] and in assay [5] were 7.25 µM (active), 6.26 µM (active) and 7.01 µM (active), respectively. The EC50 in assay [3] is 4.45 µM (inconclusive).
In the case of `Cc1cccc(N(Cc2ccccc2)C(=O)CCl)c1`, in assay [1], the IC50 was 0.649 µM (active). For the same molecule, the EC50 was 0.356 µM (inconclusive) in assay [6]; 2.91 µM (active) in assay [7]; 3.61 µM (active) in assay [8]; 0.352 µM (active) in assay [9]; 2.39 µM (active) in assay [10]; > 150 µM (inconclusive) in [11]. Moreover, the EC50 in assay [12] was 2.71 µM (inconclusive); in assay [3] it was 0.536 µM (active). In addition, the AC50 in assay [2] is 7.84 µM (active); in [4] it was 3.46 µM (active); in [5], 4.85 µM (active).
For `CC(=O)NC(=S)Nc1sc2c(c1C#N)CCCCC2`, the figures for the IC50 in assay [13], in [14] and in [15] were > 55.7 µM (not active), 12.3 µM (active) and 13.6 µM (active), respectively.
For the molecule `COc1ccc2[nH]c3c(c2c1)CCn1c-3nc2ccccc2c1=O`, the results for the IC50 in assay [16] and in assay [13] were 17.2 µM (active) and > 55.7 µM (not active), respectively.
On to `Cc1cc2cc(CNC(=O)c3ccc(S(=O)(=O)N4CCCCC4)cc3)ccc2n1C`, for which the figures for the EC50 in assay [17], in assay [18] and in assay [19] were 3.8 µM (active), 8.51 µM (active) and 3.37 µM (active), respectively. Further, the IC50 was 15.8 µM (active) in assay [20], > 66 µM (inactive) in [21], > 66 µM (inactive) in assay [22] and > 100 µM (inactive) in [23].
